Experiments:
[1] = In vitro drug release profile (dialysis, pH 7.4 then pH 6.5); format: physicochemical; details: pH 7.4 PBS
Protocol: Drug release profile. STICK-NP@Cy@Gd was prepared to evaluate the in vitro release profile using dialysis cassettes (Pierce Chemical Inc.) with a 3 kDa MWCO. To make an ideal sink condition, 10 g charcoal was added in the release medium. The cassettes were dialyzed against PBS (pH7.4) at room temperature. The PBS at pH 7.4 was replaced with fresh PBS at pH 6.5 at 4 h. The concentration of CY7.5 and Gd-DTPA remaining in the dialysis cassette at various time points was measured by UV-vis spectroscopy and ICP-MS.

DIPG (PDX) cells = assay: Anti-cancer efficacy in orthotopic PDX DIPG mouse model; format: in vivo, SCID mouse
Protocol: Anti-cancer efficacy study in orthotopic brain tumor models. […] After confirming the establishment of brain tumors, mice were randomly assigned into different groups. Tumor size was monitored using advanced T1-weight imaging (TR/TE=300 ms/15 ms). For imaging study, mice were injected with 250 mg/kg Gd-DTPA. Tumor size of DIPG model was calculated from the aggregation of tumor area in different MRI slices, 1 mm thick. Tumor size of GBM model was calculated as the followed equation: […]
where W is the width of the tumor and the L is the length of the tumor (W<L). One mouse per group was sacrificed on day 12 after MRI imaging, and organs and brain with tumors were harvested for histopathology evaluation. Animals were continuously monitored their appearance, behavior, and body weight. Once the body weight loss>20%, animals were considered as reaching the humane endpoint.

U87-MG cells = assay: Cellular uptake assay in brain tumor cells; format: cell-based, human; details: pH 6.5 versus pH 7.4, Cy7.5 0.1 mg/mL
Protocol: To study the cellular uptake of STICK-NP@Cy, the bEnd.3 cells or U87-MG cells were seeded on 8-well chamber slides (10000 cells/well) and treated with STICK-NP@Cy and other controls (0.1 mg/mL Cy7.5) for 1 hour and washed by PBS three times. Cells were then fixed and stained with DAPI. Cell imaging was acquired using a Keyence fluorescence microscope. For quantitative study, bEnd.3 cells or U87-MG cells (10000 cells/well) were seeded in 96 well plate for overnight and then treated the cells with STICK-NP@Cy and other controls (0.1 mg/mL Cy7.5). Cells were harvested at 0 h, 1 h, 2 h, 3 h, and 4 h and washed with PBS. Total cells were lysed with 100 μL DMSO and the fluorescence intensity was measured by fluorescence spectrophotometer (RF-6000, Shimazu, Japan). To inhibit GLUT1 activity, bEnd.3 cells were pretreated with 40 μM of WZB-117 for 24 h before incubation with STICK-NP@Cy. For the tumor uptake study, U87-MG cells were pretreated with 40 μM of AZT for 24 h to alter the expression of surface sialic acid. To block the interaction, U87-MG cells were pre-incubated with excess free CBA (80 μM) for 24 h to compete for the binding sites with STICK-NP@Cy (pH 6.5) through the CBA targeting moiety in the secondary smaller micelles.

[2] = Pharmacokinetic study in jugular vein catheterized rats; format: in vivo; details: Cy7.5 10 mg/kg, serum
Protocol: FIGS. 2A and 2B show cumulative release profile for both hydrophilic (Gd-DTPA) (FIG. 2A) and hydrophobic (Cy7.5) payloads (FIG. 2B) from STICK-NPs and NM in the presence of different pH. A mixture of NM and free Gd was used in (FIG. 2A), as Gd could not be loaded into NM. Drug release study was performed initially at pH 7.4 PBS (grey areas) and was then subjected to pH 6.5 after 4 h (pink areas). Samples were collected at different time points and were measured by inductively coupled plasma mass spectrometry (ICP-MS) for Gd-DTPA level and fluorescence spectrometer for the concentration of Cy7.5. (n=3). […] (n=3) FIG. 2E show the intensity-weighted distribution changes of STICK-NPs in the presence of different concentrations of glucose (mmol/L). Of note, normal human serum glucose level ranges from 3.9 to 5.5 mmol/L. FIG. 2F show pharmacokinetic profiles of free Cy7.5, STICK-NP@Cy, and NM@Cy (Cy7.5, 10 mg/kg) in jugular vein catheterized rats (n=3). Serum was collected at different time points, and drug concentrations were measured based on fluorescence signals. The error bars were the standard deviation (SD).

CNC[C@H](O)[C@@H](O)[C@H](O)[C@H](O)CO.CNC[C@H](O)[C@@H](O)[C@H](O)[C@H](O)CO.O=C([O-])CN(CCN(CC(=O)[O-])CC(=O)O)CCN(CC(=O)[O-])CC(=O)O.[Gd+3] [free Gd-DTPA, gadopentetic acid]
Release of Gd-DTPA [1]: released immediately

CC[C@]1(O)C[C@H]2CN(CCc3c([nH]c4ccccc34)[C@@](C(=O)OC)(c3cc4c(cc3OC)N(C=O)[C@H]3[C@@](O)(C(=O)OC)[C@H](OC(C)=O)[C@]5(CC)C=CCN6CC[C@]43[C@@H]65)C2)C1 [free VCR, vincristine]
Effect on tumor growth (DIPG (PDX) cells; MRI, compared to PBS control): minimal inhibition effects | Extension of survival compared to PBS control (DIPG (PDX) cells; mouse, in vivo): failed to extend the survival | Survival of mice beyond day 12 (DIPG (PDX) cells; mouse, in vivo): died after day 12

cyanine 7.5 [Free Cy]
U87-MG cell uptake after pretreatment with pH 6.5 (U87-MG cells): no significant enhancement | AUC(0-∞) [2]: 51400 ± 13400 ng·h/mL | Cmax [2]: 4190 ± 400 ng/mL | Vz [2]: 2.46 ± 0.51 L/kg | t1/2z [2]: 16.92 ± 0.78 h

From patent US20230076792A1, “SEQUENTIAL TARGETING IN CROSSLINKING NANO-THERANOSTICS FOR TREATING BRAIN TUMORS” (The Regents of the University of California, priority 2019, published 2023)
